Square brackets hold non-standard residues; d marks the D form. Ends that are not written are not given here. Dap = NC[C@H](N)C(=O)O
Test system: monoclonal antibody 2F5
Test: Immuno-complex formation of constrained peptides with monoclonal antibody 2F5
Type: binding, human
Conditions: subsequently co-crystallized with the Fab′ fragment

monoclonal antibody 2F5, sequence (as listed by the source, other chains not shown): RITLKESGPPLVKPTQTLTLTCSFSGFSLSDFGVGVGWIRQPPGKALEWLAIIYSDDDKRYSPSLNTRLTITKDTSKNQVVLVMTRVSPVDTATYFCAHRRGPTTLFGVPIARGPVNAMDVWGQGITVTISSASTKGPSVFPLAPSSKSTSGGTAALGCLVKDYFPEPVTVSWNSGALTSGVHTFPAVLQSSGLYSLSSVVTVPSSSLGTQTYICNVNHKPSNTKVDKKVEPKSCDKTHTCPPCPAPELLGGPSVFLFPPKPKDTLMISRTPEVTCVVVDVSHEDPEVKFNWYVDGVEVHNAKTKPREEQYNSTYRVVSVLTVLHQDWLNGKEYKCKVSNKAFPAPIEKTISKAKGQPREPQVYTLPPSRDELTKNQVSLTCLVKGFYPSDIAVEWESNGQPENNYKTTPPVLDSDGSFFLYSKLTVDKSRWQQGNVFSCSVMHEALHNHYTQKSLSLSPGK

Substance | formation of an immuno-complex with monoclonal antibody 2F5
ECDKWCS [CLP-634] | capable of forming an immuno-complex
E[Dap]DKWES [CLP-1309] | capable of forming an immuno-complex

Reference: US7342090B1, “Fab-epitope complex from the HIV-1 cross-neutralizing monoclonal antibody 2F5” (University of Toronto, priority 1999, dated 2008)
